Test results published in US10822317B2, “Methods and compositions for wound healing” (QBiotics Limited, priority 2013, dated 2020).

System: mouse stroma of human SK-Mel-28 xenografts
Test: Gene expression in mouse stroma of human tumour xenografts
Assay type: in vivo
Details: 30 μg intratumoural
Procedure: Mouse stroma in human tumour xenografts were obtained from mice in which the Sk-Mel-28 human melanoma cell line was injected subcutaneously into 2 sites on the flanks of each BALB/c FoxnInu mouse (2×10^6 cells/site) and allowed to grow to approximately 7 mm diameter. Each tumour was then injected with 50 μL of 20% propylene glycol containing 30 μg Compound 1 or with 50 µL of 20% propylene glycol. At different times after injection a mouse was euthanased and the tumours harvested, the skin covering removed, and the intact tumours stored at −80° C.
RNA was extracted from 30 mg of frozen tumour or 1×10^7 cells using the QiagenRNeasyPlus Mini Kit, according to manufacturer's instructions, then quantitated with a NanoDrop instrument and integrity confirmed on denaturing agarose gels bearing a 1 kb DNA marker and stained with ethidium bromide.
Approximately 500 ng of total unlabelled RNA was adjusted to a final volume of 11 μL with nuclease-free water. The RNA was incubated with 9 μL of the reverse transcriptase master mix (1 μL of T7 Oligo (dT) Primer, 2 μL of 10× first strand buffer, 4 μL of dNTP mix, 1 μL of RNase inhibitor and 1 μL of ArrayScript) at 42° C. for 2 hr. This was followed by the second strand cDNA synthesis step which involved a further incubation at 16° C. for 2 hr with 80 µL of the second strand master mix (63 μL nuclease-free water, 10 μL 10× second strand buffer, 4 μL dNTP mix, […] and 1 μL RNase H). The cDNA was purified by filtering through a cDNA Filter Cartridge with 250 μL of cDNA binding buffer and washing with 500 μL of the wash buffer provided in the kit. Purified cDNA was eluted with 20 μL of 55° C. nuclease-free water. Each cDNA sample was incubated with 7.5 μL of the IVT master mix (2.5 μL of T7 10× reaction buffer, 2.5 μL of T7 enzyme mix and 2.5 μL biotin-NTP mix) at 37° C. for 16 hr. The reaction was stopped with the addition of 75 μL of nuclease-free water to each cRNA sample. The biotinylated, amplified RNA was purified by filtering the cRNA samples through cRNA Filter Cartridges with 350 μL of cRNA binding buffer and 250 μL of 100% ethanol mixed together prior to loading onto the filters. The cRNA filter cartridges with attached RNA were then washed with 650 μL of wash buffer before eluting purified cRNA with 200 μL of 55° C. nuclease-free water.
The cRNA samples were heated at 65° C. for 5 min and collected by pulse centrifugation. After heating at 65 degrees for 5 min, approximately 750 ng of the cRNA sample was aliquoted into separate tubes to which were added ˜5 μL of RNase-free water and 10 μL of Hyb Mix. Approximately 15 μL of the prepared cRNA mix was loaded onto the Illumina Expression BeadChips. Subsequent steps of hybridisation and washing were carried out according to the Whole-Genome Gene Expression Direct Hybridization Assay Guide supplied by Illumina.
The Human HT-12 v4 Expression BeadChips cover more than 47,000 transcripts and known splice variants across the human transcriptome. The MouseRef-8 v2.0 Expression BeadChips cover approximately 25,600 well-annotated RefSeq (Reference Sequence) transcripts, comprising over 19,000 unique genes.
BeadChips were read by the iScan System, and transferred via GenomeStudio into GeneSpring GX v12.5 (Agilent Technologies, Santa Clara, Calif., USA). The expression values were normalized using quantile normalization with default settings. The entities were filtered based on the detection score calculated by GenomeStudio where p≤0.05 was considered significant.
Expression data using mouse gene-specific microarrays were performed for 2-3 individual human SK-Mel-28 xenografts treated by intratumoural injection with 30 μg of Compound 1, along with 3 vehicle-only sites, the data combined. Only those mouse genes for which expression in the Compound 1 treated site was >2 times higher or >2 times lower than in the vehicle-injected site were examined for relevance to wound healing.

## CC=C(C)C(=O)OC1C(C)C2(O)C(C3OC3(CO)C(O)C3(O)C(=O)C(C)=CC32)C2C(C)(C)C12OC(=O)C(C)CC (stereo not drawn) [Compound 1, 12-tigloyl-13-(2-methylbutanoyl)-6,7-epoxy-4,5,9,12,13,20-hexahydroxy-1-tigliaen-3-one]
0.5 h
  Acta1: Direction of regulation: Up
  Tgm2: Direction of regulation: Up
  Thbs2: Direction of regulation: Down
0.5 h, Down
  Thbs2: Fold change in expression: 3.98 fold
0.5 h, Up
  Acta1: Fold change in expression: 9.3 fold
  Tgm2: Fold change in expression: 2.67 fold
1 h
  Col17a1: Direction of regulation: Up
  Itga7: Direction of regulation: Up
  Krt5: Direction of regulation: Up
  Krt10: Direction of regulation: Up
  Krt15: Direction of regulation: Up
  Krt17: Direction of regulation: Up
  Krtdap: Direction of regulation: Up
  LCe1a1: Direction of regulation: Up
  Lce1a2: Direction of regulation: Up
  Lce1b: Direction of regulation: Up
  Lce1m: Direction of regulation: Up
  Lce1d: Direction of regulation: Up
  Lor: Direction of regulation: Up
  krt14: Direction of regulation: Up
1 h, Up
  Col17a1: Fold change in expression: 2.7 fold
  Itga7: Fold change in expression: 2.1 fold
  Krt5: Fold change in expression: 2.8 fold
  Krt10: Fold change in expression: 7 fold
  Krt15: Fold change in expression: 2.3 fold
  Krt17: Fold change in expression: 2.9 fold
  Krtdap: Fold change in expression: 7 fold
  LCe1a1: Fold change in expression: 2.7 fold
  Lce1a2: Fold change in expression: 3 fold
  Lce1b: Fold change in expression: 4.8 fold
  Lce1m: Fold change in expression: 4.9 fold
  Lce1d: Fold change in expression: 3.3 fold
  Lor: Fold change in expression: 11.6 fold
  krt14: Fold change in expression: 9.4 fold
2 h
  Col17a1: Direction of regulation: Up
  Krt10: Direction of regulation: Up
  Lor: Direction of regulation: Up
  krt14: Direction of regulation: Up
2 h, Up
  Col17a1: Fold change in expression: 2 fold
  Krt10: Fold change in expression: 2.4 fold
  Lor: Fold change in expression: 2.8 fold
  krt14: Fold change in expression: 5.6 fold
4 h
  Acta1: Direction of regulation: Up
  CXCL1: Direction of regulation: Up
  Col17a1: Direction of regulation: Up
  Egr1: Direction of regulation: Up
  Krt10: Direction of regulation: Up
  Krt17: Direction of regulation: Up
  Krt71: Direction of regulation: Up
  Krtdap: Direction of regulation: Up
  LCe1a1: Direction of regulation: Up
  Tgm2: Direction of regulation: Down
  krt14: Direction of regulation: Up
4 h, Down
  Tgm2: Fold change in expression: 2 fold
4 h, Up
  Acta1: Fold change in expression: 30.3 fold
  CXCL1: Fold change in expression: 12.1 fold
  Col17a1: Fold change in expression: 3.2 fold
  Egr1: Fold change in expression: 4.7 fold
  Krt10: Fold change in expression: 8.6 fold
  Krt17: Fold change in expression: 10 fold
  Krt71: Fold change in expression: 3.2 fold
  Krtdap: Fold change in expression: 3.8 fold
  LCe1a1: Fold change in expression: 2.8 fold
  krt14: Fold change in expression: 9.7 fold
8 h
  Acta1: Direction of regulation: Up
  Egr1: Direction of regulation: Up
  Krt10: Direction of regulation: Down
  Krt17: Direction of regulation: Down
8 h, Down
  Krt10: Fold change in expression: 2.1 fold
  Krt17: Fold change in expression: 2 fold
8 h, Up
  Acta1: Fold change in expression: 8.5 fold
  Egr1: Fold change in expression: 5.34 fold
